Peptide text beside a SMILES is read from it.
How the values were obtained:
3T3-L1 Adipocytes = experiment: Free fatty acid levels in cultured mouse 3T3-L1 adipocytes, isoproterenol stimulated (Example 2); format: cell-based; settings: test peptides 25 μM; isoproterenol 1 nM
Procedure, shortened: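 3T3-L1 cells differentiated 12–17 days into adipocytes, then exposed to test peptides at 25 μM final for 18–20 h, then 1 h, then 3 h with isoproterenol (1 nM) at 37 °C. Free fatty acids in the medium measured colorimetrically at 540 nm, corrected for untreated background and expressed relative to isoproterenol-only cells.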

[1] = Stability in mouse plasma, peptides 10 uM (Example 15); format: in vitro ADME; settings: mouse plasma 37° C., peptide 10 uM; for remaining at 0.25 h, 10 uM / remaining at 0.5 h, 10 uM / remaining at 1 h, 10 uM / remaining at 2 h, 10 uM / remaining at 3 h, 10 uM: pooled mouse plasma; for remaining at 0.25 h, 10 uM: 15 min, read-out: % Remaining at Each Time Point: 15 min; for remaining at 0.5 h, 10 uM: 30 min, read-out: % Remaining at Each Time Point: 30 min; for remaining at 1 h, 10 uM: 60 min, read-out: % Remaining at Each Time Point: 60 min; for remaining at 2 h, 10 uM: 120 min, read-out: % Remaining at Each Time Point: 120 min; for remaining at 3 h, 10 uM: 180 min, read-out: % Remaining at Each Time Point: 180 min
Procedure: Peptides (10 uM) were incubated in pooled mouse plasma at 37° C. and samples were removed and immediately analyzed for the concentration of intact peptide by LC/MS/MS over the course of 3 hours. The percent of peptide remaining in plasma at each time point was calculated relative to the initial peak area (Table 13).

Compound	Free Fatty Acid Levels in 3T3-L1 Adipocytes Expressed as a Percent of Isoproterenol Control: Percent of Control Value (3T3-L1 Adipocytes)	further results
CC[C@H](C)[C@H](NC(=O)[C@H](Cc1ccc(O)cc1)NC(=O)[C@H](CC(N)=O)NC(=O)[C@H](CCSC)NC(=O)[C@H](CCC(=O)O)NC(=O)[C@H](CCC(N)=O)NC(=O)[C@H](Cc1c[nH]c2ccccc12)NC(=O)[C@H](CCCNC(=N)N)NC(=O)[C@@H](C)N)C(=O)N[C@@H](Cc1ccccc1)C(=O)N[C@@H](Cc1ccc(O)cc1)C(=O)N1CCC[C@H]1C(=O)N[C@@H](CCCNC(=N)N)C(=O)O [compound 288] (HELM PEPTIDE1{[dA].R.W.Q.E.M.N.Y.I.F.Y.P.R}$$$$V2.0)	93.0%	% Remaining at Each Time Point: 0 min [1]: 100%; remaining at 0.25 h, 10 uM [1]: 90%; remaining at 0.5 h, 10 uM [1]: 81.9%; remaining at 1 h, 10 uM [1]: 77.4%; remaining at 2 h, 10 uM [1]: 69.2%; remaining at 3 h, 10 uM [1]: 67%
CCCCCCCCCCCCCCCC(=O)N[C@@H](CCSC)C(=O)N[C@@H](CCCNC(=N)N)C(=O)N[C@@H](Cc1c[nH]c2ccccc12)C(=O)N[C@@H](CCC(N)=O)C(=O)N[C@@H](CCC(=O)O)C(=O)N[C@@H](CCSC)C(=O)N[C@@H](CC(N)=O)C(=O)N[C@@H](Cc1ccc(O)cc1)C(=O)N[C@H](C(=O)N[C@@H](Cc1ccccc1)C(=O)N[C@@H](Cc1ccc(O)cc1)C(=O)N1CCC[C@H]1C(=O)N[C@@H](CCCNC(=N)N)C(=O)O)[C@@H](C)CC [compound 289] (HELM PEPTIDE1{[CCCCCCCCCCCCCCCC(=O)[*:2]].M.R.W.Q.E.M.N.Y.I.F.Y.P.R}$$$$V2.0)	94.5%	% Remaining at Each Time Point: 0 min [1]: 100%; remaining at 0.25 h, 10 uM [1]: 82.9%; remaining at 0.5 h, 10 uM [1]: 74.6%; remaining at 1 h, 10 uM [1]: 78.4%; remaining at 2 h, 10 uM [1]: 77.2%; remaining at 3 h, 10 uM [1]: 75.6%
Ac-MRWQEMGYIFYPEKLR-NH2 [compound 194]	107.2%	
Ac-MRWQEMGYIFYPKKLR-NH2 [compound 129]	82.5%	
Ac-MRWQEMGYIFYPRALR-NH2 [compound 35]	31.3%	
Ac-MRWQEMGYIFYPRELR-NH2 [compound 195]	58.9%	
Ac-MRWQEMGYIFYPRK-NH2 [compound 60]	89.3%	
Ac-MRWQEMGYIFYPRKER-NH2 [compound 196]	80.5%	
Ac-MRWQEMGYIFYPRKL-NH2 [compound 59]	92.2%	
Ac-MRWQEMGYIFYPRKLE-NH2 [compound 197]	84.6%	
Ac-MRWQEMGYIFYPRKLK-NH2 [compound 130]	85.4%	
Ac-MRWQEMGYIFYPRRLR-NH2 [compound 131]	78.1%	
Ac-MRWQEMNYIFYPR-OH [compound 286]	94.8%	% Remaining at Each Time Point: 0 min [1]: 100%; remaining at 0.25 h, 10 uM [1]: 88.4%; remaining at 0.5 h, 10 uM [1]: 74.7%; remaining at 1 h, 10 uM [1]: 57.1%; remaining at 2 h, 10 uM [1]: 36.4%; remaining at 3 h, 10 uM [1]: 25.9%
H-ERWQEAGYIAYPRKLA-OH [compound 239]	66.6%	
H-ERWQEAGYIFYPR-OH [compound 235]	71.8%	
H-ERWQEAGYIFYPRKLA-OH [compound 233]	69.7%	
H-ERWQEMGYIFYPRKLR-OH [compound 168]	52.2%	
H-MEWQEMGYIFYPRKLR-OH [compound 169]	49.2%	
H-MGWQEMGYIFYPRKLR-OH [compound 77]	112.5%	
H-MGYIFYPRKLR-OH [compound 42]	115.2%	
H-MKWQEMGYIFYPRKLR-OH [compound 122]	52.1%	
H-MREQEMGYIFYPRKLR-OH [compound 170]	48.0%	
H-MRWEEMGYIFYPRKLR-OH [compound 171]	45.9%	
H-MRWNEMGYIFYPRKLR-OH [compound 127]	55.6%	

From patent US11753445B2, “Therapeutic peptides” (COHBAR, INC., priority 2016, dated 2023)
